According to PubChem BioAssay AID256 (DTP/NCI, 2004):
“And” between values parts separate entries of the source, which are not always exact repeats. Equal entries are not always repeated. Toxic doses and inconclusive results are not listed. Rule for the calls: active = survival T/C of 150% or more; inactive = T/C below 125% in these data.

Tested on: CD2F1 mice, L1210 leukemia ip, survival T/C
Assay: NCI In Vivo Anticancer Drug Screen. Data for tumor model L1210 Leukemia (intraperitoneal) in CD2F1 (CDF1) mice
Details: endpoint: mean survival time, higher = longer survival
How it was run: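 Compound-dosed mice with transplantable tumor versus matched vehicle controls; endpoint ratio T/C reported.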

[1] = dose: 25.0 mg/kg/injection, schedule: Q04DX002 (ip), vehicle: saline with Tween-80
[2] = dose: 50.0 mg/kg/injection, schedule: Q04DX002 (ip), vehicle: saline with Tween-80
[3] = dose: 100.0 mg/kg/injection, schedule: Q01DX009 (ip), vehicle: saline with Tween-80
[4] = dose: 200.0 mg/kg/injection, schedule: Q01DX009 (ip), vehicle: saline with Tween-80
[5] = dose: 400.0 mg/kg/injection, schedule: Q01DX009 (ip), vehicle: saline with Tween-80
[6] = dose: 100.0 mg/kg/injection, schedule: Q04DX003 (ip), vehicle: saline with Tween-80
[7] = dose: 200.0 mg/kg/injection, schedule: Q04DX003 (ip), vehicle: saline with Tween-80
[8] = dose: 400.0 mg/kg/injection, schedule: Q04DX003 (ip), vehicle: saline with Tween-80
[9] = dose: 75.0 mg/kg/injection, schedule: Q01DX001 (ip), vehicle: other
[10] = dose: 150.0 mg/kg/injection, schedule: Q01DX001 (ip), vehicle: other
[11] = dose: 100.0 mg/kg/injection, schedule: Q01DX001 (ip), vehicle: saline with Tween-80
[12] = dose: 200.0 mg/kg/injection, schedule: Q01DX001 (ip), vehicle: saline with Tween-80
[13] = dose: 400.0 mg/kg/injection, schedule: Q01DX001 (ip), vehicle: saline with Tween-80
[14] = dose: 25.0 mg/kg/injection, schedule: Q04DX003 (ip), vehicle: saline with Tween-80
[15] = dose: 100.0 mg/kg/injection, schedule: Q04DX002 (ip), vehicle: saline with Tween-80
[16] = dose: 200.0 mg/kg/injection, schedule: Q04DX002 (ip), vehicle: saline with Tween-80
[17] = dose: 400.0 mg/kg/injection, schedule: Q04DX002 (ip), vehicle: saline with Tween-80
[18] = dose: 100.0 mg/kg/injection, schedule: Q04DX003 (ip), vehicle: saline
[19] = dose: 200.0 mg/kg/injection, schedule: Q04DX003 (ip), vehicle: saline
[20] = dose: 400.0 mg/kg/injection, schedule: Q04DX003 (ip), vehicle: saline

Measured: T/C

CCn1ccc(=O)nc1
inactive: dose: 12.5 mg/kg/injection, schedule: Q04DX002 (ip), vehicle: saline with Tween-80 95 % of control | [1] 95 % of control | [2] 106 % of control

CCCCCCCCCCCSSCCCCCCCCCCC
inactive: dose: 100.0 mg/kg/injection, schedule: Q01DX009 (ip), vehicle: other 101 % of control | dose: 200.0 mg/kg/injection, schedule: Q01DX009 (ip), vehicle: other 100 % of control | dose: 400.0 mg/kg/injection, schedule: Q01DX009 (ip), vehicle: other 111 % of control

Cc1ccc([N+](=O)[O-])cc1NC(=O)NNC(=O)CNC(=O)c1ccc(Cl)cc1
inactive: [3] 88 % of control | [4] 94 % of control | [5] 107 % of control

CC(=O)Nc1ccc2c(c1)C(P(=O)(OC(C)C)OC(C)C)c1ccccc1-2 (configuration not stated)
inactive: [6] 95 % of control | [7] 95 % of control | [8] 92 % of control

OC(c1c(F)c(F)c(C(O)(C(F)(F)F)C(F)(F)F)c(F)c1F)(C(F)(F)F)C(F)(F)F
inactive: [6] 96 % of control | [7] 104 % of control | [8] 96 % of control

Cc1c2cnccc2c(C)c2c1c1ccccc1n2CCCCCCCl
inactive: [6] 91 % of control | [7] 101 % of control

CN(C)[C-]=O.[C-]#[O+].[C-]#[O+].[Fe+6].[c-]1[c-][c-][cH-][c-]1
inactive: [9] 94 % of control | [10] 88 % of control

O=C1C(Cc2ccccc2)CCCC1Cc1ccccc1 (configuration not stated)
inactive: [11] 100 % of control | [12] 98 % of control | [13] 102 % of control

CC(C)(C)CC(C)(C)c1ccc(O)c(O)c1
inactive: [14] 101 % of control | dose: 50.0 mg/kg/injection, schedule: Q04DX003 (ip), vehicle: saline with Tween-80 93 % of control | [6] 96 % of control

CNC(C)c1ccc(C)cc1 (configuration not stated)
inactive: dose: 6.25 mg/kg/injection, schedule: Q04DX003 (ip), vehicle: saline with Tween-80 98 % of control | dose: 12.5 mg/kg/injection, schedule: Q04DX003 (ip), vehicle: saline with Tween-80 108 % of control | [14] 101 % of control

CC[C@H]1CN2CCc3cc(OC)c(OC)cc3[C@@H]2C[C@@H]1C[C@H]1NCCc2cc(O)c(OC)cc21
inactive: dose: 0.5 mg/kg/injection, schedule: Q01DX015 (ip), vehicle: saline 107 % of control | dose: 1.0 mg/kg/injection, schedule: Q01DX015 (ip), vehicle: saline 110 % of control | dose: 2.0 mg/kg/injection, schedule: Q01DX015 (ip), vehicle: saline 122 % of control | dose: 8.0 mg/kg/injection, schedule: Q01DX015 (ip), vehicle: saline 115 % of control | dose: 16.0 mg/kg/injection, schedule: Q01DX015 (ip), vehicle: saline 89 % of control

Cc1c(C=NC(=O)c2ccccc2)c2ccccc2n1C
inactive: [15] 100 % of control | [16] 108 % of control | [17] 96 % of control

CCc1cc(CSc2ccc(Cl)cc2)ccc1N
inactive: [6] 102 % of control | [7] 100 % of control | [8] 98 % of control

CN(C=O)c1ccccc1C(=O)O
inactive: [11] 98 % of control | [3] 96 % of control | [12] 101 % of control | [4] 91 % of control | [13] 98 % of control | [5] 97 % of control

O=C(NCCCCCCNC(=O)Nc1cccc(Cl)c1)Nc1cccc(Cl)c1
inactive: dose: 50.0 mg/kg/injection, schedule: Q01DX009 (ip), vehicle: Klucel (hydroxypropylcellulose) (HPC) 94 % of control | dose: 100.0 mg/kg/injection, schedule: Q01DX009 (ip), vehicle: Klucel (hydroxypropylcellulose) (HPC) 91 % of control | dose: 200.0 mg/kg/injection, schedule: Q01DX009 (ip), vehicle: Klucel (hydroxypropylcellulose) (HPC) 88 % of control

O=Cc1ccc(OC(=O)Nc2cccc3ccccc23)cc1
inactive: [15] 91 % of control | [16] 98 % of control | [17] 87 % of control

O=Cc1ccc(O)c2ncccc12
inactive: [9] 101 % of control | [10] 95 % of control | dose: 300.0 mg/kg/injection, schedule: Q01DX001 (ip), vehicle: other 110 % of control

CN(C)N=Nc1cccc([N+](=O)[O-])c1
inactive: dose: 79.0 mg/kg/injection, schedule: Q01DX009 (ip), vehicle: Klucel (hydroxypropylcellulose) (HPC) 107 % of control | dose: 118.0 mg/kg/injection, schedule: Q01DX009 (ip), vehicle: Klucel (hydroxypropylcellulose) (HPC) 102 % of control

Cc1cc(C)c2nc(-c3ccc(Cl)cc3)cc(C(=O)O)c2c1
inactive: dose: 100.0 mg/kg/injection, schedule: Q01DX001 (ip), vehicle: saline 96 % of control | dose: 100.0 mg/kg/injection, schedule: Q04DX002 (ip), vehicle: Klucel (hydroxypropylcellulose) (HPC) 94 % of control | dose: 200.0 mg/kg/injection, schedule: Q04DX002 (ip), vehicle: Klucel (hydroxypropylcellulose) (HPC) 94 % of control

O=C(C(=O)N1CC2C=CC1C2)c1c[nH]c2ccccc12 (configuration not stated)
inactive: [3] 101 % of control | [6] 102 % of control | [4] 97 % of control | [7] 97 % of control | [5] 101 % of control | [8] 92 % of control

OCN(CO)c1ccc2c(c1)Cc1cc(Cl)ccc1-2
inactive: [18] 97 % of control | [19] 100 % of control | [20] 91 % of control

CC(C)NC(=O)C1C2CCC(C2)C1C(=O)NC(C)C (configuration not stated)
inactive: [18] 98 % of control | [19] 111 % of control | [20] 98 % of control

CCCCCCCCOCCOCCOCCOCCOCCCCCCCC
inactive: [15] 102 % of control | [16] 98 % of control | [17] 102 % of control

CCCCCCCCCCCCCCCC1CCCC(C)N1 (configuration not stated)
inactive: [2] 90 % of control and 105 % of control | [15] 87 % of control | [16] 87 % of control

COC(=O)CCC(=O)C=[N+]=[N-]
inactive: dose: 1.5 mg/kg/injection, schedule: Q01DX009 (ip), vehicle: other 94 % of control | dose: 3.1 mg/kg/injection, schedule: Q01DX009 (ip), vehicle: other 94 % of control | dose: 6.2 mg/kg/injection, schedule: Q01DX009 (ip), vehicle: other 91 % of control | dose: 12.5 mg/kg/injection, schedule: Q01DX009 (ip), vehicle: other 91 % of control

O=C(O)/C=C/C(=O)NCCc1c[nH]c2ccccc12
inactive: [3] 98 % of control | [6] 93 % of control | [4] 95 % of control | [7] 95 % of control | [5] 95 % of control | [8] 95 % of control

O=C(OCC1OC(n2cc[n+]([O-])nc2=O)C(OC(=O)c2ccccc2)C1OC(=O)c1ccccc1)c1ccccc1 (configuration not stated)
inactive: dose: 25.0 mg/kg/injection, schedule: Q01DX005 (ip), vehicle: other 90 % of control | dose: 50.0 mg/kg/injection, schedule: Q01DX005 (ip), vehicle: other 101 % of control | dose: 100.0 mg/kg/injection, schedule: Q01DX005 (ip), vehicle: other 104 % of control | dose: 200.0 mg/kg/injection, schedule: Q01DX005 (ip), vehicle: other 122 % of control | dose: 400.0 mg/kg/injection, schedule: Q01DX005 (ip), vehicle: other 113 % of control

CCOC(=O)C(CCC(O)C#N)(NC(C)=O)C(=O)OCC (configuration not stated)
inactive: [1] 101 % of control | [2] 96 % of control | [15] 100 % of control

CC1CNC(Cl)O1 (configuration not stated)
inactive: [6] 87 % of control | [7] 105 % of control

Nc1ncnc2c1ncn2C1OC(C(N)C(=O)O)C(O)C1O (configuration not stated)
inactive: dose: 6.25 mg/kg/injection, schedule: Q01DX005 (ip), vehicle: distilled water + Tween-80 101 % of control | dose: 12.5 mg/kg/injection, schedule: Q01DX005 (ip), vehicle: distilled water + Tween-80 96 % of control | dose: 25.0 mg/kg/injection, schedule: Q01DX005 (ip), vehicle: distilled water + Tween-80 98 % of control | dose: 50.0 mg/kg/injection, schedule: Q01DX005 (ip), vehicle: distilled water + Tween-80 98 % of control | dose: 100.0 mg/kg/injection, schedule: Q01DX005 (ip), vehicle: distilled water + Tween-80 103 % of control

C=CCCCCCCCCCCC(=O)OC
inactive: [3] 106 % of control | [6] 93 % of control | [4] 106 % of control | [7] 94 % of control | [5] 101 % of control
